Test results published in patent publication US8729078B2, “Inhibitors of bruton's tyrosine kinase” (Hoffmann-La Roche Inc., priority 2011, dated 2014).
pIC50: −log10 of the molar value.

Assays:
[1] = system: B cells in human whole blood (CD69 expression); test: Inhibition of B cell activation in whole blood measured by CD69 expression; format: cell-based; details: anti-IgM stimulation, CD69-positive CD20-positive cells
Procedure: Inhibition of B Cell Activation in Whole Blood Measured by CD69 Expression
A procedure to test the ability of Btk inhibitors to suppress B cell receptor-mediated activation of B cells in human blood is as follows:
Human whole blood (HWB) is obtained from healthy volunteers, with the following restrictions: 24 hr drug-free, non-smokers. Blood is collected by venipuncture into Vacutainer tubes anticoagulated with sodium heparin. Test compounds are diluted to ten times the desired starting drug concentration in PBS (20×), followed by three-fold serial dilutions in 10% DMSO in PBS to produce a nine point dose-response curve. 5.5 μl of each compound dilution is added in duplicate to a 2 ml 96-well V bottom plate (Analytical Sales and Services, #59623-23); 5.5 μl of 10% DMSO in PBS is added to control and no-stimulus wells. HWB (100 μl) is added to each well, and after mixing the plates are incubated at 37 C, 5% CO2, 100% humidity for 30 minutes. Goat F(ab′)2 anti-human IgM (Southern Biotech, #2022-14) (10 μl of a 500 μg/ml solution, 50 μg/ml final concentration) is added to each well (except the no-stimulus wells) with mixing and the plates are incubated for an additional 20 hours.
At the end of the 20 hour incubation, samples are incubated with florescent-probe-labeled anti-bodies (15 μl PE Mouse anti-Human CD20, BD Pharmingen, #555623, and/or 20 ul APC Mouse anti-Human CD69, BD Pharmingen #555533) for 30 minutes, at 37 C, 5% CO2, 100% humidity. Included are induced control, unstained and single stains for compensation adjustments and initial voltage settings. Samples are then lysed with 1 ml of 1× Pharmingen Lyse Buffer (BD Pharmingen #555899), and plates are centrifuged at 1800 rpm for 5 minutes. Supernatants are removed via suction and the remaining pellets are lysed again with another 1 ml of 1× Pharmingen Lyse Buffer, and plates are spun down as before. Supernatants are aspirated and remaining pellets are washed in FACs buffer (PBS+1% FBS). After a final spin, the supernantants are removed and pellets are resuspended in 180 μl of FACs buffer. Samples are transferred to a 96 well plate suitable to be run on the HTS 96 well system on the BD LSR II flow cytometer.
Using appropriate excitation and emission wavelengths for the fluorophores used, data are acquired and percent positive cell values are obtained using Cell Quest Software. Results are initially analyzed by FACS analysis software (Flow Jo). […] The IC50 values are calculated using XLfit software version 3, equation 201.

Btk = Btk (Homo sapiens (Human), UniProt Q06187); test: Bruton's Tyrosine Kinase (Btk) inhibition assay (FRET BTK); format: biochemical
Ramos cells = test: Inhibition of B-cell activation, B cell FLIPR assay in Ramos cells (anti-IgM stimulated calcium increase); format: cell-based; details: Homo sapiens, anti-IgM stimulated Ca2+ signaling
Description: Inhibition of B-Cell Activation—B Cell FLIPR Assay in Ramos Cells
The B cell FLIPR assay is a cell based functional method of determining the effect of potential inhibitors of the intracellular calcium increase from stimulation by an anti-IgM antibody. Ramos cells (human Burkitt's lymphoma cell line. ATCC-No. CRL-1596) were cultivated in Growth Media (described below). One day prior to assay, Ramos cells were resuspended in fresh growth media (same as above) and set at a concentration of 0.5×10^6/mL in tissue culture flasks. On day of assay, cells are counted and set at a concentration of 1×10^6/mLl in growth media supplemented with 1 μM FLUO-3AM (TefLabs Cat-No. 0116, prepared in anhydrous DMSO and 10% Pluronic acid) in a tissue culture flask, and incubated at 37° C. (4% CO2) for one h. To remove extracellular dye, cells were collected by centrifugation (5 min, 1000 rpm), resuspended in FLIPR buffer (described below) at 1×10^6 cells/mL and then dispensed into 96-well poly-D-lysine coated black/clear plates (BD Cat-No. 356692) at 1×10^5 cells per well. Test compounds were added at various concentrations ranging from 100 μM to 0.03 μM (7 concentrations, details below), and allowed to incubate with cells for 30 min at RT. Ramos cell Ca^2+ signaling was stimulated by the addition of 10 μg/mL anti-IgM (Southern Biotech, Cat-No. 2020-01) and measured on a FLIPR (Molecular Devices, captures images of 96 well plates using a CCD camera with an argon laser at 480 nm excitation).
Growth Medium: RPMI 1640 medium with L-glutamine (Invitrogen, Cat-No. 61870-010), 10% Fetal Bovine Serum (FBS, Summit Biotechnology Cat-No. FP-100-05); 1 mM Sodium Pyruvate (Invitrogen Cat. No. 11360-070).
FLIPR buffer: HBSS (Invitrogen, Cat-No. 141175-079), 2 mM CaCl2 (Sigma Cat-No. C-4901), HEPES (Invitrogen, Cat-No. 15630-080), 2.5 mM Probenecid (Sigma, Cat-No. P-8761), 0.1% BSA (Sigma, Cat-No. A-7906), 11 mM Glucose (Sigma, Cat-No. G-7528)
Compound Dilution Details:
In order to achieve the highest final assay concentration of 100 μM, 24 μL of 10 mM compound stock solution (made in DMSO) is added directly to 576 μL of FLIPR buffer. The test compounds are diluted in FLIPR Buffer (using Biomek 2000 robotic pipettor) resulting in the following dilution scheme: vehicle, 1.00×10^−4 M, 1.00×10^−5, 3.16×10^−6, 1.00×10^−6, 3.16×10^−7, 1.00×10^−7, 3.16×10^−8.
Intracellular increases in calcium were reported using a max-min statistic (subtracting the resting baseline from the peak caused by addition of the stimulatory antibody using a Molecular Devices FLIPR control and statistic exporting software. The IC50 was determined using a non-linear curve fit (GraphPad Prism software).

Sequence of Btk (Q06187 whole entry): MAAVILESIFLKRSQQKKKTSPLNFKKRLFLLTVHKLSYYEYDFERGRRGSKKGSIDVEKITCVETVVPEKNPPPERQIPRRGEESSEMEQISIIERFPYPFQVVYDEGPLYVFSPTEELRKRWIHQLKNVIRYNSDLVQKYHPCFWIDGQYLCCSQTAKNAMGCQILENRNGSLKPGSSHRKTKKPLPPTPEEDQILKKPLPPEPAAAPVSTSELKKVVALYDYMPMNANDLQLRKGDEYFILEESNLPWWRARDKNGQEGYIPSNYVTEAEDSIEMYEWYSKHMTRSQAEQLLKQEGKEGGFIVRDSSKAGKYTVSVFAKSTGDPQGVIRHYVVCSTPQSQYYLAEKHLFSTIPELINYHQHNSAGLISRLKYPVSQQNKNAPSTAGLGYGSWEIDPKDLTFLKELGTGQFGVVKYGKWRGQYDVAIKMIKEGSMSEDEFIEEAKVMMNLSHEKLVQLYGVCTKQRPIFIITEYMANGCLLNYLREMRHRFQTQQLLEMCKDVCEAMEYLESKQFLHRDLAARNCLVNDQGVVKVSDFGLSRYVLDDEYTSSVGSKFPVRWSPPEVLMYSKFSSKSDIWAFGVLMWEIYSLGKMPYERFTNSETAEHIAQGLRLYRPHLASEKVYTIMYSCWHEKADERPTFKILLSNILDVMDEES

SMILES | pIC50 [1] | pIC50 (Btk) | pIC50 (Ramos cells)
Cn1cc(-c2cccc(-n3ncc4cc(C(C)(C)C)cc(F)c4c3=O)c2CO)nc1C(N)=O [Compound I-8, 4-[3-(6-tert-Butyl-8-fluoro-1-oxo-1H-phthalazin-2-yl)-2-hydroxymethyl-phenyl]-1-methyl-1H-imidazole-2-carboxylic acid amide] | 5.72 | 7.74 | 
CN1Cc2cc(C(C)(C)C)ccc2C(=O)N1c1cccc(-c2cc(C(N)=O)n(C)c2)c1CO [Compound I-14, 4-[3-(6-tert-Butyl-3-methyl-1-oxo-3,4-dihydro-1H-phthalazin-2-yl)-2-hydroxymethyl-phenyl]-1-methyl-1H-pyrrole-2-carboxylic acid amide] | 5.32 | 7.57 | 
CC(C)(C)c1cc(F)c2c(=O)n(-c3cccc(-c4coc(C(N)=O)c4)c3CO)ncc2c1 [Compound I-11, 4-[3-(6-tert-Butyl-8-fluoro-1-oxo-1H-phthalazin-2-yl)-2-hydroxymethyl-phenyl]-furan-2-carboxylic acid amide] | < 6.30 | 7.29 | 
Cc1nc(-c2cccc(-n3ncc4cc(C(C)(C)C)ccc4c3=O)c2CO)oc1C(N)=O [Compound I-6, 2-[3-(6-tert-Butyl-1-oxo-1H-phthalazin-2-yl)-2-hydroxymethyl-phenyl]-4-methyl-oxazole-5-carboxylic acid amide] | < 5.30 | 5.90 | 
Cn1c(C(N)=O)ccc1-c1cccc(-n2ncc3cc(C(C)(C)C)ccc3c2=O)c1CO [Compound I-5, 5-[3-(6-tert-Butyl-1-oxo-1H-phthalazin-2-yl)-2-hydroxymethyl-phenyl]-1-methyl-1H-pyrrole-2-carboxylic acid amide] | 5.36 |  | 
Cn1cc(-c2cccc(-n3ncc4cc(C(C)(C)C)cc(F)c4c3=O)c2CO)cc1C(N)=O [Compound I-9, 4-[3-(6-tert-Butyl-8-fluoro-1-oxo-1H-phthalazin-2-yl)-2-hydroxymethyl-phenyl]-1-methyl-1H-pyrrole-2-carboxylic acid amide] | 5.90 | 8.60 | 
CN(C)Cc1ccc2c(C(N)=O)cn(-c3cccc(-n4ncc5cc(C(C)(C)C)cc(F)c5c4=O)c3CO)c2n1 [Compound I-52, 1-[3-(6-tert-Butyl-8-fluoro-1-oxo-1H-phthalazin-2-yl)-2-hydroxymethyl-phenyl]-6-dimethylaminomethyl-1H-pyrrolo[2,3-b]pyridine-3-carboxylic acid amide] | 5.97 |  | 
CC(C)(C)c1cc(F)c2c(=O)n(-c3cccc(-c4ccc(C(N)=O)o4)c3CO)ncc2c1 [Compound I-10, 5-[3-(6-tert-Butyl-8-fluoro-1-oxo-1H-phthalazin-2-yl)-2-hydroxymethyl-phenyl]-furan-2-carboxylic acid amide] | < 5.30 | 6.08 | 

Results, then the molecule that gave them:

pIC50 [1] | pIC50 (Btk) | pIC50 (Ramos cells) | SMILES
< 6.30 | 6.16 |  | Cn1cc(-c2cccc(-n3ncc4cc(C(C)(C)C)cc(CO)c4c3=O)c2CO)cc1C(N)=O [Compound I-12, 4-[3-(6-tert-Butyl-8-hydroxymethyl-1-oxo-1H-phthalazin-2-yl)-2-hydroxymethyl-phenyl]-1-methyl-1H-pyrrole-2-carboxylic acid amide]
 | 7.30 | 4.95 | Cn1cc(-c2cccc(-n3ncc4cc(C(C)(C)C)ccc4c3=O)c2CO)nc1C(N)=O [Compound I-1, 4-[3-(6-tert-Butyl-1-oxo-1H-phthalazin-2-yl)-2-hydroxymethyl-phenyl]-1-methyl-1H-imidazole-2-carboxylic acid amide]
< 5.30 | 7.57 |  | CC(C)(C)c1ccc2c(=O)n(-c3cccc(-c4c[nH]c(C(N)=O)c4)c3CO)ncc2c1 [Compound I-3, 4-[3-(6-tert-Butyl-1-oxo-1H-phthalazin-2-yl)-2-hydroxymethyl-phenyl]-1H-pyrrole-2-carboxylic acid amide]
6.59 |  |  | CC(C)(C)c1cc(F)c2c(=O)n(-c3cccc(-n4cc(C(N)=O)c(Nc5ccc(C(=O)N6CCOCC6)cc5)n4)c3)ncc2c1 [Compound I-21, 1-[3-(6-tert-Butyl-8-fluoro-1-oxo-1H-phthalazin-2-yl)-phenyl]-3-[4-(morpholine-4-carbonyl)-phenylamino]-1H-pyrazole-4-carboxylic acid amide]
5.44 | 7.94 |  | Cn1cc(-c2cccc(-n3ncc4cc(C(C)(C)C)ccc4c3=O)c2CO)cc1C(N)=O [Compound I-4, 4-[3-(6-tert-Butyl-1-oxo-1H-phthalazin-2-yl)-2-hydroxymethyl-phenyl]-1-methyl-1H-pyrrole-2-carboxylic acid amide]
4.97 |  |  | CC(C)(C)c1ccc2c(=O)n(-c3cccc(-n4cc(C(N)=O)c5ccccc54)c3CO)ncc2c1 [Compound I-18, 1-[3-(6-tert-Butyl-1-oxo-1H-phthalazin-2-yl)-2-hydroxymethyl-phenyl]-1H-indole-3-carboxylic acid amide]
< 5.30 | 6.89 |  | CC(C)(C)c1cc(F)c2c(=O)n(-c3cccc(-c4nc(C(N)=O)cs4)c3CO)ncc2c1 [Compound I-7, 2-[3-(6-tert-Butyl-8-fluoro-1-oxo-1H-phthalazin-2-yl)-2-hydroxymethyl-phenyl]-thiazole-4-carboxylic acid amide]
7.32 |  |  | CC(C)(C)c1ccc2c(=O)n(-c3cccc(-n4cc(C(N)=O)c(Nc5ccc(C(=O)N6CCOCC6)cc5)n4)c3CO)ncc2c1 [Compound I-19, 1-[3-(6-tert-Butyl-1-oxo-1H-phthalazin-2-yl)-2-hydroxymethyl-phenyl]-3-[4-(morpholine-4-carbonyl)-phenylamino]-1H-pyrazole-4-carboxylic acid amide]
5.58 |  |  | CC(C)(C)c1cc(F)c2c(=O)n(-c3cccc(-n4cc(C(N)=O)c5ccccc54)c3CO)ncc2c1 [Compound I-17, 1-[3-(6-tert-Butyl-8-fluoro-1-oxo-1H-phthalazin-2-yl)-2-hydroxymethyl-phenyl]-1H-indole-3-carboxylic acid amide]
 | 6.55 | 5.80 | CC(C)(C)c1ccc2c(=O)n(-c3cccc(-c4nc(C(N)=O)cs4)c3CO)ncc2c1 [Compound I-2, 2-[3-(6-tert-Butyl-1-oxo-1H-phthalazin-2-yl)-2-hydroxymethyl-phenyl]-thiazole-4-carboxylic acid amide]
